In patent publication US7345065B2, “Methods and compositions for alleviating pain” (Allergan, Inc., priority 2002, dated 2008):

Test system: Male Sprague-Dawley rats
Assay: Sedative effects in rats (total activity, digicom analyzer chamber)
Assay type: in vivo, rat
Conditions: single intraperitoneal dose 1 to 1000 μg/kg
Description: Sedative effects were analyzed by assessing exploratory behavior in a darkened chamber as follows. Mice were weighed, and test compound administered by intrathecal injection in a volume of 5 μl or by intraperitoneal injection in 1 ml/kg volume at the indicated dose. At predetermined time points corresponding with analgesia measurements 5 to 30 minutes following the injection, the animal's activity was determined automatically by placing the mouse in a digicom analyzer chamber (Omnitech Electronic; Columbus, Ohio). The digicom analyzer chamber contains photocell beams criss-crossing the box that are broken as the animal moves around; the chamber was modified for mice by raising the level of the floor. Computer analysis of total animal movement proceeded over a 5-minute time period. Any given animal was used at most twice for this protocol, as learned behavior can affect the data. All animals received at least two weeks rest between studies.
Male Sprague-Dawley rats that were not subject to surgery were used for assessment of sedative effects. Rats were weighed and compound administered by intravenous or intraperitoneal injection or given orally at the indicated dose. At a predetermined time point 5 to 30 minutes following injection, the animal's activity was determined automatically by placing the rat in a digicom analyzer chamber (Omnitech Electronic). Total activity was analyzed as described above.

O=C1c2ccccc2CCC1Cc1c[nH]c(=S)[nH]1 (racemic) [Compound 3]
non-sedating dose relative to doses producing a robust reversal of allodynia: > 100 fold
